From paper PMC9675574 (JCI Insight, 2022) come the findings set out here.

Common to all, as to format: biochemical
For test [1], the target named is T1, human trypsin isoform PRSS3 (mesotrypsin) (Homo sapiens, UniProt P35030).
T1 construct: made in house; host or cells: Escherichia coli BL21(DE3)
T1 sequence (P35030 81-304 limits assumed): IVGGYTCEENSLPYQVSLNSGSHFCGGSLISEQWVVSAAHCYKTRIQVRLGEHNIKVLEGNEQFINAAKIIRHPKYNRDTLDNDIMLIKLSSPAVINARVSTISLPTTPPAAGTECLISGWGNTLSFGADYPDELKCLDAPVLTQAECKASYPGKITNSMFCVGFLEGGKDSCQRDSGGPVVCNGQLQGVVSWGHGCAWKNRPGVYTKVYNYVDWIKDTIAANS
Description: Competitive inhibition kinetics of trypsin, GPR-pNA substrate. Conditions: for kcat: GPR-pNA, 24°C; for Ki: mean ± SD, n = 3. The procedure:
Recombinant human and mouse trypsinogens were expressed in Escherichia coli BL21(DE3) (Invitrogen), refolded in vitro, and purified by ecotin affinity chromatography (Pharmacia FPLC), according to published protocols ([60], [63], [64]). Sulfated human trypsinogens were purified from archived samples of human pancreatic juice, as described previously, with minor modifications ([65], [66]). Briefly, 50 mg freeze-dried pancreatic juice was dissolved in 2 mL 10 mM HCl, clarified by centrifugation (21,000g, 5 minutes, 4°C), and loaded onto a MonoQ 5/50 GL column equilibrated with 20 mM Tris-HCl (pH 8.0). Proteins were eluted with a 0–0.5 M NaCl gradient at 1 mL/min flow rate for 30 minutes. The fractions containing the cationic and anionic trypsinogens were further purified with ecotin affinity chromatography. The concentration of trypsinogen preparations was estimated from their UV absorbance at 280 nm using the extinction coefficients reported previously for mouse trypsinogens ([64]) and 37,525, 38,890, and 41,535/M/cm for human cationic trypsinogen (PRSS1), anionic trypsinogen (PRSS2), and mesotrypsinogen (PRSS3), respectively. To activate trypsinogen to trypsin, approximately 1 μM solution was incubated at 37°C with 28.2 ng/mL human enterokinase (final concentration) in 0.1 M Tris-HCl (pH 8.0), 10 mM CaCl2, and 0.05% Tween 20 for 1 hour. The activation reaction was followed by measuring trypsin activity: 2 μL trypsin was diluted in 48 μL assay buffer [0.1 M Tris-HCl (pH 8.0), 1 mM CaCl2, and 0.05% Tween 20], and 150 μL of 200 μM GPR-pNA trypsin substrate (in assay buffer) was added. Substrate cleavage resulting in the release of the yellow p-nitroaniline was monitored for 1 minute in a Spectramax Plus 384 microplate reader at 405 nm.
Michaelis-Menten kinetic parameters of trypsin isoforms were determined with the chromogenic substrate GPR-pNA at 24°C. The trypsin concentration was 1 nM and the substrate concentration was varied typically between 1.56 and 200 μM in a final volume of 200 μL assay buffer. The substrate concentration range was 3.1–400 μM for mouse trypsin isoform T7 and 0.4–50 μM for mouse trypsin isoform T20. Km and kcat values were calculated from hyperbolic fits to plots of reaction velocity versus substrate concentration.
Michaelis-Menten kinetic parameters were then measured after adding 100 μL trypsin substrate, as described above. […] To determine the Ki, the Km values were plotted as a function of the inhibitor concentration, and the Ki was calculated by dividing the y axis intercept with the slope of the linear fit. This value corresponds to the negative of the x axis intercept. Alternatively, the substrate saturation curves obtained in the absence and presence of the increasing inhibitor concentrations were globally fitted to the competitive inhibition equation y = vmax × (x/[KmObs+ x]), where y is the reaction velocity, vmax is the maximal velocity, x is the substrate concentration, and KmObs = Km × (1 + [I]/Ki), where [I] is the inhibitor concentration. Experiments were performed 3 times and each experiment was analyzed separately. […] Kinetic analysis was performed with the Prism 8 program (GraphPad).

A further test addresses T2, bovine trypsin (Bos taurus, UniProt P00760).
T2 construct: purchased Worthington Biochemical Corporation LS003707
T2 sequence (P00760 24-246): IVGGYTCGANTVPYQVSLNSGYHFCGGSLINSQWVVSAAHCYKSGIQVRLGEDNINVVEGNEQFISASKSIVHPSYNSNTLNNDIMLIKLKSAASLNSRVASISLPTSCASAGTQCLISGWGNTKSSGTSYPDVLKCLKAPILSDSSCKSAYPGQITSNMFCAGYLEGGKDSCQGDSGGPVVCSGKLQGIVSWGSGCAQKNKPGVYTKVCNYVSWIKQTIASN
The test is described as above. Conditions: 24°C. The procedure: Bovine trypsin (catalog number LS003707) was purchased from Worthington Biochemical Corporation and was active-site titrated with p-nitrophenyl p’-guanidino-benzoate (catalog number N-8010, MilliporeSigma) ([59]). Ecotin was produced and purified as reported previously ([60]). The concentration of ecotin was determined by titration against active-site titrated bovine trypsin. Recombinant human pro-enterokinase (catalog number 1585-SE-010) was purchased from R&D Systems and was activated with human cationic trypsin. The trypsin substrate GPR-pNA (catalog number 4000768.0100) was purchased from Bachem Americas. […] Michaelis-Menten kinetic parameters of trypsin isoforms were determined with the chromogenic substrate GPR-pNA at 24°C. […] Km and kcat values were calculated from hyperbolic fits to plots of reaction velocity versus substrate concentration. […] To determine the Ki, the Km values were plotted as a function of the inhibitor concentration, and the Ki was calculated by dividing the y axis intercept with the slope of the linear fit. This value corresponds to the negative of the x axis intercept. […] Experiments were performed 3 times and each experiment was analyzed separately. […] Kinetic analysis was performed with the Prism 8 program (GraphPad).

Test [2] addresses human and mouse trypsin isoforms. Kind of test: Ki ranges over the panel of trypsin isoforms. The procedure: Michaelis-Menten kinetic parameters of trypsin isoforms were determined with the chromogenic substrate GPR-pNA at 24°C. […] Km and kcat values were calculated from hyperbolic fits to plots of reaction velocity versus substrate concentration. […] To determine the Ki, the Km values were plotted as a function of the inhibitor concentration, and the Ki was calculated by dividing the y axis intercept with the slope of the linear fit. This value corresponds to the negative of the x axis intercept. […] Experiments were performed 3 times and each experiment was analyzed separately. […] Kinetic analysis was performed with the Prism 8 program (GraphPad).

Setting [3] is: range over trypsin isoforms tested, read-out: Ki range, individual fit analysis.

Like-named read-outs stand apart in the source and are kept apart here.

In general, Ki refers to a dissociation constant, usually derived from enzyme kinetics or from competition with a known ligand. The term Km denotes the concentration of substrate that gives half-maximal velocity. As for `[H]/N=C(/N)c1ccc(NCc2nc3cc(C(=O)N(CCC(=O)O)c4ccccn4)ccc3n2C)cc1` [dabigatran], the kcat in test [1] (50 nM dabigatran) is 214.6 ± 4.9 per second; in test [1] (100 nM dabigatran), 215.5 ± 4.6 per second; in test [1] (150 nM dabigatran) it was 217.5 ± 10.8 per second; in test [1] (200 nM dabigatran), 220.5 ± 4.1 per second; on bovine trypsin (50 nM dabigatran), 127.7 ± 0.8 per second; on bovine trypsin (100 nM dabigatran), 126.6 ± 3.5 per second. The figures for the kcat on bovine trypsin (150 nM dabigatran) and on bovine trypsin (200 nM dabigatran) were 123.8 ± 2.9 per second and 130.1 ± 1.4 per second, respectively. The inhibition constant Ki was 51.6 ± 2.1 nM in test [1] (Ki dabigatran, Global fit); 35.1 ± 2.4 nM in test [1] (Ki dabigatran, Individual fit); 10 to 79 nM in test [2] (all human and mouse trypsin isoforms, read-out: Ki range); 10.3 to 78.9 nM in test [2] (range over trypsin isoforms tested, read-out: Ki range, global fit analysis); 10 to 65 nM in test [2] (setting [3]). Also, the Km came out at 49.5 ± 3.3 µM at bovine trypsin (50 nM dabigatran), 71.6 ± 3.5 µM on bovine trypsin (100 nM dabigatran), 91.9 ± 4.9 µM on bovine trypsin (150 nM dabigatran) and 126 ± 7 µM at bovine trypsin (200 nM dabigatran).

As to `N=C(N)c1ccccc1` [benzamidine], the kcat was 211.9 ± 8.6 per second in test [1] (25 μM benzamidine); 214.2 ± 4.7 per second in test [1] (50 μM benzamidine); 201.3 ± 8 per second in test [1] (75 μM benzamidine); 205.7 ± 6.3 per second in test [1] (100 μM benzamidine); 109 ± 9.5 per second at bovine trypsin (25 μM benzamidine); 115.8 ± .9 per second at bovine trypsin (50 μM benzamidine). The inhibition constant Ki in test [1] (Ki benzamidine, Global fit) was 13300 ± 800 nM; in test [1] (Ki benzamidine, Individual fit), 15500 ± 2300 nM; in test [2] (setting [3]) it was 3300 to 20600 nM.
